Test [1] concerns the target T1, PKC epsilon (Homo sapiens, UniProt Q02156).
T1 construct: purchased Invitrogen P2282
T1 sequence (Q02156 1-737): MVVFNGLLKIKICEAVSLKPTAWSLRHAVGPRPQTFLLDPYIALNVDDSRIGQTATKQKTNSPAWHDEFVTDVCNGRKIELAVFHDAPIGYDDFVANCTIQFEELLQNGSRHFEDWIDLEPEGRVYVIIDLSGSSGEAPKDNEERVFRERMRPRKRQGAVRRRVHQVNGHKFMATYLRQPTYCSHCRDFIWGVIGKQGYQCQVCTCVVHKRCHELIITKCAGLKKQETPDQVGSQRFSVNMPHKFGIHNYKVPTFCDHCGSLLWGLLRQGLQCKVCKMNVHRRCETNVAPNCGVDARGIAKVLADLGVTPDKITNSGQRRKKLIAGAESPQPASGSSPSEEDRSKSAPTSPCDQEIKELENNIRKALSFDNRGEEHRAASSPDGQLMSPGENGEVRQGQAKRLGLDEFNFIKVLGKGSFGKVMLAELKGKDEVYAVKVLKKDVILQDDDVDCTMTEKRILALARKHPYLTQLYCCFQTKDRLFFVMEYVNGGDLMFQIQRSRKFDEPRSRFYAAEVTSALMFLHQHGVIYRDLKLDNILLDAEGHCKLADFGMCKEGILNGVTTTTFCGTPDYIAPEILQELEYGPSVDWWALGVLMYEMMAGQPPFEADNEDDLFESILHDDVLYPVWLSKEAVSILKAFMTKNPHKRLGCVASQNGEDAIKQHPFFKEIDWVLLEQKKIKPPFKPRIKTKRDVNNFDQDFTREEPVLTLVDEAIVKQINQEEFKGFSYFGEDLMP
Kind of test: Biochemical assay for PKC epsilon (fluorescence polarization, Protein Kinase C Assay Kit, Red). The settings on record: Table 2, compounds of Formula XIII; read-out: IC50 μM PKCε. In short, it runs like this:
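Read-out was fluorescence-polarization competition between phosphorylated substrate and a rhodamine PKC tracer for an anti-phosphoserine antibody, added with EDTA stop after an 80 min room-temperature kinase reaction with ATP and protein substrate (Mg2+/Ca2+ buffer). Enzyme (10 ng/ml final) was preincubated with compound for 30 min.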
On the technique in general: Polarisation of emitted light reports the rotation of a fluorescent probe.

The target in test [2] is T2, human ROCKα/ROCKII mix (Homo sapiens, UniProt O75116).
T2 construct: purchased Upstate Biotechnology 14-451
Kind of test: Biochemical assay for ROCK (fluorescence polarization, ROCK IMAP Kit). The conditions noted are these: Table 2, compounds of Formula XIII.

A word on the IC50: it is the concentration at which inhibition is half-maximal.

T2 sequence (O75116 11-552 limits assumed): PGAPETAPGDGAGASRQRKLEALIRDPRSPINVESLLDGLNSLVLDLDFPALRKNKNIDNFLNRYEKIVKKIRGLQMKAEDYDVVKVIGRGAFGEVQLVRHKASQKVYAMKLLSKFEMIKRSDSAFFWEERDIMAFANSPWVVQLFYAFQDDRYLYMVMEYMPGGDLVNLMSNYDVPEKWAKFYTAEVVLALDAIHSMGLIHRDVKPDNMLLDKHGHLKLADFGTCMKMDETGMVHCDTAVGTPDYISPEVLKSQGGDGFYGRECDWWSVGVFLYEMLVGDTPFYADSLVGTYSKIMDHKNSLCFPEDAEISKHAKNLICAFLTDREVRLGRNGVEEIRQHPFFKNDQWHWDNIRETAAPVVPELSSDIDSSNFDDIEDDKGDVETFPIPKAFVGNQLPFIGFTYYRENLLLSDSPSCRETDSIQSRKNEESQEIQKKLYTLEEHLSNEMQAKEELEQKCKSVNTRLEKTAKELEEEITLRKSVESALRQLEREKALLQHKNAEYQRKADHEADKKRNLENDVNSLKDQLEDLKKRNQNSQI

For `COc1cccc(C(=O)NCC(N)c2ccc(C(=O)Nc3ccncc3)cc2)c1` (stereo not shown) [Compound 73, 4-[1-amino-2-(3-methoxy-benzoylamino)-ethyl]-N-pyridin-4-yl-benzamide], the IC50 in test [1] and in test [2] was 0.5 to 5 µM throughout.
For `COc1ccc(C(=O)NCC(N)c2ccc(C(=O)Nc3ccncc3)cc2)cc1` (stereo not shown) [Compound 74, 4-[1-amino-2-(4-methoxy-benzoylamino)-ethyl]-N-pyridin-4-yl-benzamide], the values for the IC50 in test [1] and in test [2] were 5 to 50 µM and 0.5 to 5 µM, respectively.
In the case of `CCCOc1ccc(C(=O)NCC(N)c2ccc(C(=O)Nc3ccncc3)cc2)cc1` (stereo not shown) [Compound 75, 4-[1-amino-2-(4-propoxy-benzoylamino)-ethyl]-N-pyridin-4-yl-benzamide], the values for the IC50 in test [1] and in test [2] were 5 to 50 µM and 0.5 to 5 µM, respectively.
On the same counts, the results for `NC(CNC(=O)c1ccccc1Oc1ccccc1)c1ccc(C(=O)Nc2ccncc2)cc1` (stereo not shown) [Compound 76, 4-[1-amino-2-(2-phenoxy-benzoylamino)-ethyl]-N-pyridin-4-yl-benzamide] are 0.5 to 5 µM and 0.5 to 5 µM.
In the case of `NC(CNC(=O)c1cccc(Oc2ccccc2)c1)c1ccc(C(=O)Nc2ccncc2)cc1` (stereo not shown) [Compound 77, 4-[1-amino-2-(3-phenoxy-benzoylamino)-ethyl]-N-pyridin-4-yl-benzamide], the half-inhibitory concentration (IC50) in test [1] is 5 to 50 µM; in test [2] it was 0.5 to 5 µM.
Consider `NC(CNC(=O)c1ccc(Oc2ccccc2)cc1)c1ccc(C(=O)Nc2ccncc2)cc1` (stereo not shown) [Compound 78, 4-[1-amino-2-(4-phenoxy-benzoylamino)-ethyl]-N-pyridin-4-yl-benzamide], for which the values for the IC50 in test [1] and in test [2] were 5 to 50 µM and 0.5 to 5 µM, respectively.
Consider `COc1cc(OC)cc(C(=O)NCC(N)c2ccc(C(=O)Nc3ccncc3)cc2)c1` (stereo not shown) [Compound 79, 4-[1-amino-2-(3,5-dimethoxy-benzoylamino)-ethyl]-N-pyridin-4-yl-benzamide], for which the IC50 in test [1] and in test [2] was 0.5 to 5 µM throughout.
As for `NC(CNC(=O)c1ccc2c(c1)OCO2)c1ccc(C(=O)Nc2ccncc2)cc1` (stereo not shown) [Compound 80, Benzo[1,3]dioxole-5-carboxylic acid {2-amino-2-[4-(pyridin-4-ylcarbamoyl)-phenyl]-ethyl}amide], the figures for the IC50 in test [1] and in test [2] were 5 to 50 µM and 0.05 to 0.5 µM, respectively.
Take `CCN(CC)c1ccc(C(=O)NCC(N)c2ccc(C(=O)Nc3ccncc3)cc2)cc1` (stereo not shown) [Compound 81, 4-[1-amino-2-(4-diethylamino-benzoylamino)-ethyl]-N-pyridin-4-yl-benzamide]: the IC50 in test [1] was in the range of 5 to 50 µM; in test [2], 0.5 to 5 µM.
For the compound `NC(CNC(=O)c1ccccc1Nc1ccccc1)c1ccc(C(=O)Nc2ccncc2)cc1` (stereo not shown) [Compound 82, 4-[1-amino-2-(2-phenylamino-benzoylamino)-ethyl]-N-pyridin-4-yl-benzamide], the IC50 in test [1] and in test [2] was 0.5 to 5 µM throughout.
As to `CC(=O)Nc1ccc(C(=O)NCC(N)c2ccc(C(=O)Nc3ccncc3)cc2)cc1` (stereo not shown) [Compound 83, 4-[1-amino-2-(4-acetylamino-benzoylamino)-ethyl]-N-pyridin-4-yl-benzamide], the concentration for half-maximal inhibition (IC50) fell in the range of 5 to 50 µM in test [1] and 0.5 to 5 µM in test [2].
Take `Cc1ccccc1C(=O)NCC(N)c1ccc(C(=O)Nc2ccncc2)cc1` (stereo not shown) [Compound 84, 4-[1-amino-2-(2-methyl-benzoylamino)-ethyl]-N-pyridin-4-yl-benzamide]: the results for the IC50 in test [1] and in test [2] were 5 to 50 µM and 0.5 to 5 µM, respectively.
On to `Cc1cccc(C(=O)NCC(N)c2ccc(C(=O)Nc3ccncc3)cc2)c1` (stereo not shown) [Compound 85, 4-[1-amino-2-(3-methyl-benzoylamino)-ethyl]-N-pyridin-4-yl-benzamide], for which the IC50 in test [1] and in test [2] was 0.5 to 5 µM each time.
For the compound `Cc1ccc(C(=O)NCC(N)c2ccc(C(=O)Nc3ccncc3)cc2)cc1` (stereo not shown) [Compound 86, 4-[1-amino-2-(4-methyl-benzoylamino)-ethyl]-N-pyridin-4-yl-benzamide], the results for the IC50 in test [1] and in test [2] were 5 to 50 µM and 0.5 to 5 µM, respectively.
As to `NC(CNC(=O)c1ccccc1-c1ccccc1)c1ccc(C(=O)Nc2ccncc2)cc1` (stereo not shown) [Compound 87, Biphenyl-2-carboxylic acid {2-amino-2-[4-(pyridin-4-ylcarbamoyl)-phenyl]-ethyl}-amide], the IC50 in test [1] and in test [2] was 0.5 to 5 µM in each case.
As to `NC(CNC(=O)c1ccc(-c2ccccc2)cc1)c1ccc(C(=O)Nc2ccncc2)cc1` (stereo not shown) [Compound 88, Biphenyl-4-carboxylic acid {2-amino-2-[4-(pyridin-4-ylcarbamoyl)-phenyl]-ethyl}-amide], the IC50 is 5 to 50 µM in test [1] and 0.5 to 5 µM in test [2].
`NC(CNC(=O)c1cccc(Cl)c1)c1ccc(C(=O)Nc2ccncc2)cc1` (stereo not shown) [Compound 89, 4-[1-amino-2-(3-chloro-benzoylamino)-ethyl]-N-pyridin-4-yl-benzamide]: the IC50 in test [1] and in test [2] was 0.5 to 5 µM throughout.
With `NC(CNC(=O)c1ccc(Cl)cc1)c1ccc(C(=O)Nc2ccncc2)cc1` (stereo not shown) [Compound 90, 4-[1-amino-2-(4-chloro-benzoylamino)-ethyl]-N-pyridin-4-yl-benzamide], the IC50 in test [1] is 5 to 50 µM; in test [2], 0.5 to 5 µM.
On the same counts, the results for `NC(CNC(=O)c1cccc(Br)c1)c1ccc(C(=O)Nc2ccncc2)cc1` (stereo not shown) [Compound 91, 4-[1-amino-2-(3-bromo-benzoylamino)-ethyl]-N-pyridin-4-yl-benzamide] are 0.5 to 5 µM and 0.5 to 5 µM.
On to `NC(CNC(=O)c1cccc(F)c1)c1ccc(C(=O)Nc2ccncc2)cc1` (stereo not shown) [Compound 92, 4-[1-amino-2-(3-fluoro-benzoylamino)-ethyl]-N-pyridin-4-yl-benzamide], for which the IC50 in test [1] and in test [2] was 0.5 to 5 µM each time.
As for `NC(CNC(=O)c1ccc(F)cc1)c1ccc(C(=O)Nc2ccncc2)cc1` (stereo not shown) [Compound 93, 4-[1-amino-2-(4-fluoro-benzoylamino)-ethyl]-N-pyridin-4-yl-benzamide], the IC50 in test [1] and in test [2] was 0.5 to 5 µM in each case.
Take `N#Cc1cccc(C(=O)NCC(N)c2ccc(C(=O)Nc3ccncc3)cc2)c1` (stereo not shown) [Compound 94, 4-[1-amino-2-(3-cyano-benzoylamino)-ethyl]-N-pyridin-4-yl-benzamide]: the IC50 in test [1] and in test [2] was 0.5 to 5 µM throughout.
As to `N#Cc1ccc(C(=O)NCC(N)c2ccc(C(=O)Nc3ccncc3)cc2)cc1` (stereo not shown) [Compound 95, 4-[1-amino-2-(4-cyano-benzoylamino)-ethyl]-N-pyridin-4-yl-benzamide], the figures for the IC50 in test [1] and in test [2] were 5 to 50 µM and 0.5 to 5 µM, respectively.
For `CS(=O)(=O)c1cccc(C(=O)NCC(N)c2ccc(C(=O)Nc3ccncc3)cc2)c1` (stereo not shown) [Compound 96, 4-[1-amino-2-(3-methanesulfonyl-benzoylamino)-ethyl]-N-pyridin-4-yl-benzamide], the IC50 in test [1] and in test [2] was 0.5 to 5 µM each time.
`CCNS(=O)(=O)c1cccc(C(=O)NCC(N)c2ccc(C(=O)Nc3ccncc3)cc2)c1` (stereo not shown) [Compound 97, 4-[1-amino-2-(3-ethylsulfamoyl-benzoylamino)-ethyl]-N-pyridin-4-yl-benzamide]: the IC50 in test [1] and in test [2] was 0.5 to 5 µM in each case.
As to `CNS(=O)(=O)c1ccc(C(=O)NCC(N)c2ccc(C(=O)Nc3ccncc3)cc2)cc1` (stereo not shown) [Compound 98, 4-[1-amino-2-(4-methylsulfamoyl-benzoylamino)-ethyl]-N-pyridin-4-yl-benzamide], the IC50 was 5 to 50 µM in test [1] and 0.5 to 5 µM in test [2].

These data come from patent US20100168102A9, “Amide Derivatives as Kinase Inhibitors” (Devgen NV, priority 2005, published 2010).
